From ChEMBL document CHEMBL1201862, “PubChem BioAssay data set” (2004) come the findings set out here.

Among the test systems are NCI-H460; XF498; TK-10; SK-MEL-2; MDA-N; T47D; M19-MEL; NCI-H23; M14; NCI/ADR-RES; IGROV-1; LOX IMVI; MCF7; CAKI-1; CCRF-CEM; SF-295; SR; HOP-62; OVCAR-8; HOP-92.
Common to all, as to experiment: NCI-60 cell line screen, 48 h

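Compound exposure: 48 hours, 5 concentrations, 96-well plates. Abbreviation: GI50, concentration required for 50% inhibition of growth.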 Activity calls are given as the source filed them. Rule as the data show it: active = GI50 up to about 1.1 µM and inactive = higher.

Consider `COC(=O)[C@@]12OC[C@]34[C@H]([C@@H](O)[C@@H]1O)[C@@]1(C)CC(=O)C(O)=C(C)[C@@H]1C[C@H]3OC(=O)[C@H](OC(=O)/C=C(\C)C(C)C)[C@@H]24` [BRUCEANTIN], for which the GI50 with NCI-H460 is 0.02 µM (active); with XF498, 0.02 µM (active); in the experiment on TK-10, 0.021 µM (active); in the experiment with SK-MEL-2 it was 0.0209 µM (active); in the experiment with MDA-N, < 0.0101 µM (active); in the experiment with T47D, 0.0153 µM (active). Moreover, the GI50 is 0.02 µM (active) in the experiment on M19-MEL; 0.02 µM (active) in the experiment on NCI-H23; 0.00346 µM (active) in the experiment on M14; 0.337 µM (active) with NCI/ADR-RES; 0.02 µM (active) with IGROV-1; 0.02 µM (active) in the experiment on LOX IMVI. The GI50 was 0.02 µM (active) in the experiment with MCF7; 0.022 µM (active) with CAKI-1; 0.02 µM (active) in the experiment on CCRF-CEM; 0.02 µM (active) in the experiment on SF-295; 0.00512 µM (active) in the experiment on SR; 0.02 µM (active) in the experiment with HOP-62. For the same compound, the figures for the GI50 in the experiment with OVCAR-8 and with HOP-92 were 0.02 µM (active) and 0.0328 µM (active), respectively.

Regarding `C=C(C)C(=O)/N=C(\N)NC#N`, the GI50 in the experiment with NCI-H460 was > 75 µM (inactive); in the experiment on XF498, 41.8 µM (inactive); in the experiment with TK-10 it was 41.7 µM (inactive); in the experiment with SK-MEL-2, 47.2 µM (inactive); with MDA-N, 39.4 µM (inactive); with T47D it was 14.3 µM (inactive). Besides, the GI50 in the experiment with M19-MEL was 23.6 µM (inactive); in the experiment with NCI-H23 it was 72.3 µM (inactive); in the experiment on M14, 45.3 µM (inactive); in the experiment on NCI/ADR-RES it was 35.9 µM (inactive); in the experiment with IGROV-1 it was > 46.9 µM (inactive); with LOX IMVI, 33 µM (inactive). In addition, the GI50 with MCF7 is 47.5 µM (inactive); with CAKI-1, 24.4 µM (inactive); with CCRF-CEM, 23.7 µM (inactive); with SF-295, > 90.2 µM (inactive); with SR, 28.1 µM (inactive); with HOP-62, > 63.1 µM (inactive). The GI50 with OVCAR-8 was 31.4 µM (inactive); with HOP-92 it was 14.2 µM (inactive).

Turning to `C/C=C(\N=C=S)C(=O)OC1C(COC(C)=O)OC([C@]2(O)CC(=O)C(N)=C(C(=O)O)C2=O)C(O)C1OC1CC(OC)C(O)([C@@H](C)OC(=O)[C@@H](C)CC)C(C)O1` (some centres not stated), the GI50 in the experiment on NCI-H460 is 20.7 µM (inactive); in the experiment with XF498 it was 2.49 µM (inactive); in the experiment on TK-10 it was 16.7 µM (inactive); in the experiment with SK-MEL-2 it was 9.33 µM (inactive); in the experiment on MDA-N, 13.2 µM (inactive); with T47D it was 11.2 µM (inactive). The GI50 with M19-MEL was 2.6 µM (inactive); in the experiment with NCI-H23 it was 9.84 µM (inactive); in the experiment on M14 it was 16 µM (inactive); with NCI/ADR-RES, 94.4 µM (inactive); in the experiment with IGROV-1, 17.7 µM (inactive); in the experiment with LOX IMVI, 6.34 µM (inactive). Besides, the GI50 in the experiment on MCF7 is 14.5 µM (inactive); in the experiment on CAKI-1, 19.6 µM (inactive); in the experiment with CCRF-CEM, 2.4 µM (inactive); in the experiment with SF-295, 18.1 µM (inactive); with SR it was 4.39 µM (inactive); with HOP-62, 22.1 µM (inactive). The GI50 in the experiment on OVCAR-8 was 5.65 µM (inactive); in the experiment with HOP-92, 3.45 µM (inactive).

On to `COC1/C=C\C=C(/C)C(=O)Nc2cc3nc4ccc(Br)cc4oc-3c(c2=O)CC(C)CC(OC)C(O)C(C)/C=C(\C)C1OC(N)=O` (configuration not stated), for which the GI50 was 0.63 µM (active) with NCI-H460; < 0.0202 µM (active) in the experiment with XF498; 0.0424 µM (active) in the experiment on TK-10; 0.0741 µM (active) in the experiment with SK-MEL-2; 0.00451 µM (active) in the experiment with MDA-N; 0.00277 µM (active) with T47D. The GI50 in the experiment with M19-MEL is 0.0383 µM (active); in the experiment on M14, 0.0453 µM (active); in the experiment with IGROV-1, 0.436 µM (active); in the experiment on LOX IMVI, 0.0565 µM (active); in the experiment with MCF7, 0.000752 µM (active); in the experiment with CAKI-1, 0.292 µM (active). Moreover, the GI50 in the experiment with SF-295 was 12.6 µM (inactive); in the experiment on SR it was 0.0116 µM (active); in the experiment on HOP-62 it was 4.1 µM (inactive); in the experiment on OVCAR-8 it was 0.09 µM (active); with HOP-92, 0.0134 µM (active).

`CCN(CC)CCNc1ccc2ncn3c4cc(O)ccc4c(=O)c1c23`: the GI50 is 3.04 µM (inactive) in the experiment on NCI-H460; 2.9 µM (inactive) with XF498; 6.65 µM (inactive) in the experiment with TK-10; 8.59 µM (inactive) with SK-MEL-2; 3.94 µM (inactive) in the experiment with M19-MEL; 3.55 µM (inactive) in the experiment with NCI-H23. Moreover, the GI50 with M14 was 4.5 µM (inactive); in the experiment with IGROV-1, 4.25 µM (inactive); in the experiment with LOX IMVI, 1.87 µM (inactive); with CAKI-1, 3.05 µM (inactive); in the experiment with CCRF-CEM it was 1.32 µM (inactive); with SF-295, 2.5 µM (inactive). Besides, the GI50 in the experiment on SR was 2.26 µM (inactive); with HOP-62 it was 4.85 µM (inactive); in the experiment on OVCAR-8 it was 1.15 µM (inactive); with HOP-92 it was 0.519 µM (active).

Consider `CSC[S+]([O-])C[C@H](CO)NC(=O)/C=C/c1c(C)[nH]c(=O)[nH]c1=O` (some centres not stated), for which the GI50 in the experiment with NCI-H460 was 0.48 µM (active); with XF498, 0.214 µM (active); in the experiment on TK-10 it was 4.02 µM (inactive); in the experiment with SK-MEL-2, 1.08 µM (active); in the experiment on M19-MEL, 0.718 µM (active); in the experiment with NCI-H23 it was 0.644 µM (active). The GI50 with M14 is 1.16 µM (inactive); with NCI/ADR-RES, 1.27 µM (inactive); in the experiment on IGROV-1, 0.614 µM (active); in the experiment with LOX IMVI it was 1.11 µM (active); with MCF7, 1.8 µM (inactive); in the experiment on CAKI-1, 1.65 µM (inactive). Further, the GI50 was 1.19 µM (inactive) with CCRF-CEM; 0.457 µM (active) with SF-295; 2.04 µM (inactive) in the experiment on SR; 1.15 µM (inactive) with HOP-62; 1.43 µM (inactive) in the experiment with OVCAR-8; 0.257 µM (active) with HOP-92.

`Nc1ccc2c(SCc3ccc([N+](=O)[O-])cc3)c3ccccc3nc2c1`: the GI50 is 21.7 µM (inactive) in the experiment with NCI-H460; 14.6 µM (inactive) in the experiment on XF498; 11.9 µM (inactive) in the experiment with TK-10; 16.4 µM (inactive) in the experiment with SK-MEL-2; 12.8 µM (inactive) in the experiment on MDA-N; 8.02 µM (inactive) with T47D. Moreover, the GI50 in the experiment on M19-MEL is 13.2 µM (inactive); in the experiment with NCI-H23, 17 µM (inactive); in the experiment on M14 it was 11.4 µM (inactive); in the experiment with NCI/ADR-RES, 18.2 µM (inactive); with IGROV-1, 19.5 µM (inactive); with LOX IMVI it was 6.84 µM (inactive). The GI50 with MCF7 was 13.6 µM (inactive); in the experiment on CAKI-1 it was 13.3 µM (inactive); in the experiment on CCRF-CEM it was 1.35 µM (inactive); with SF-295, 18.2 µM (inactive); in the experiment with SR it was 1.42 µM (inactive); in the experiment on HOP-62, 21.8 µM (inactive). Moreover, the GI50 in the experiment with OVCAR-8 was 13.2 µM (inactive); with HOP-92, 15.2 µM (inactive).

With `O=c1/c(=C/c2ccccc2[N+](=O)[O-])sc2nnc(-c3cccnc3)n12`, the GI50 with NCI-H460, in the experiment with XF498, with TK-10, in the experiment on SK-MEL-2, in the experiment on M19-MEL and in the experiment on NCI-H23 was > 100 µM (inactive) in each case. Further, the GI50 is > 100 µM (inactive) in the experiment with M14; > 100 µM (inactive) in the experiment on IGROV-1; > 100 µM (inactive) in the experiment with LOX IMVI; 1.43 µM (inactive) in the experiment with CAKI-1; 55.8 µM (inactive) in the experiment with CCRF-CEM; > 100 µM (inactive) in the experiment on SF-295. Moreover, the GI50 in the experiment on SR was 76.7 µM (inactive); in the experiment with HOP-62 it was > 100 µM (inactive); in the experiment on OVCAR-8, > 100 µM (inactive); with HOP-92 it was > 100 µM (inactive).
